The record followed here is ChEMBL document CHEMBL2429719, “Indolo[3,2-a]carbazoles from a deep-water sponge of the genus Asteropus” (2013).

The subject of assay [1] is Staphylococcus aureus. Kind of assay: Antimicrobial activity against methicillin-resistant Staphylococcus aureus up to 50 ug/ml by broth microdilution method. It is filed as functional, organism-based. A general note: Dilution methods test growth across graded concentrations, often in twofold steps.
Another assay relates to NCI/ADR-RES. Briefly: Cytotoxicity against human NCI/ADR-RES cells at 5 ug/ml after 2 to 3 days by MTT assay. It is filed as functional, cell-based.
Another assay has as its system PANC-1. Briefly: Cytotoxicity against human PANC1 cells at 5 ug/ml after 2 to 3 days by MTT assay. The assay is classed as functional, cell-based.
In assay [2] the test system is Candida albicans. Briefly: Antimicrobial activity against Candida albicans up to 50 ug/ml by broth microdilution method. The assay is classed as functional, organism-based.
Assay [3] has as its system Candida albicans. Kind of assay: Antimicrobial activity against Candida albicans by broth microdilution method. The assay is classed as functional.
The subject of assay [4] is Staphylococcus aureus. Briefly: Antimicrobial activity against methicillin-resistant Staphylococcus aureus by broth microdilution method. The assay is classed as functional.

The structures appear in SMILES notation. ≈ marks a conversion by molar mass, not a printed value. Calls of active or inactive are those of the source. The calls are words filed in the database; no cut-off is given here.

Turning to `O=S(=O)(O)Oc1cc2[nH]c3ccc4c5ccc(Br)cc5[nH]c4c3c2cc1O`, the “growth inhibition (GI)” value in the assay on Staphylococcus aureus [1] and in the assay on Candida albicans [2] was “inactive” in each case. The outcome in the assay with NCI/ADR-RES and with PANC-1 was inactive.

In the case of `Oc1cc2[nH]c3ccc4c5ccc(Br)cc5[nH]c4c3c2cc1O`, the outcome in the assay on NCI/ADR-RES and with PANC-1 was inactive. In addition, the figures for the minimum inhibitory concentration (MIC) against Candida albicans [3] and with Staphylococcus aureus [4] were 25 µg/mL (≈ 68.1 µM) and 50 µg/mL (≈ 136 µM), respectively.
